Reference: paper PMC6615261, “Repurposing Azithromycin and Rifampicin Against Gram-Negative Pathogens by Combination With Peptidomimetics” (Frontiers in Cellular and Infection Microbiology, 2019)
Like-named read-outs stand apart in the source and are kept apart here.

Columns and labels:
E. coli ST131 [1] = system: E. coli ST131
In short: (§1)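 Two-dimensional checkerboard broth microdilution in MHB II, with twofold dilutions of peptidomimetic and antibiotic on crossed axes and 18–20 h incubation per CLSI. FICI = MICA(A+B)/MICA(alone) + MICB(A+B)/MICB(alone); ≤0.5 is interpreted as synergy.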

K. pneumoniae ST258 [2] = system: K. pneumoniae ST258
In short: as §1

P. aeruginosa ATCC 27853 [3] = system: P. aeruginosa ATCC 27853
In short: as §1

K. pneumoniae ST258 [4] = test: Screening of peptidomimetic-antibiotic combinations (growth / growth inhibition); format: cell-based, Klebsiella pneumoniae; parameters: key to Growth in combination with RIF / Growth in combination with AZM: Growth (+); growth inhibition (–)
MDR E. coli ST131 = test: as above; format: cell-based, Escherichia coli; parameters: key to Growth in combination with RIF / Growth in combination with AZM: Growth (+); growth inhibition (–)
[5] = MTS/PMS cell viability assay; format: cell-based; conditions: human, HepG2 hepatocytes, 1 h exposure, read-out: Cytotoxicity HepG2 EC50 ± SD
In short: (§2)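 NIH 3T3 and HepG2 cells at 80–90% confluence exposed 1 h to compound in serum-free medium, then MTS/PMS added for 1 h at 37 °C; absorbance read at 492 nm. Viability normalized to medium (0% death) and 0.2% SDS (100% death); EC50 from Hill fit constrained 0–100%, technical triplicates.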

P. aeruginosa ATCC 27853 [6] = test: MIC by broth microdilution; format: cell-based, Pseudomonas aeruginosa
In short: (§3)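 Checkerboard data set the combination ratios (2:1 with rifampicin, 1:4 with azithromycin, peptidomimetic first). MICs then followed CLSI broth microdilution, and potentiation used commercial antibiotic-gradient plates with peptidomimetic added right before inoculation.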

NIH 3T3 and HepG2 cells = test: Effect on viability of mammalian cells (both cell lines); format: cell-based, mouse and human
Method: NIH 3T3 and HepG2 cells (both from ATCC, Manassas, VA, USA) were cultured in flat-bottomed 96-well MicroWell™ plates (NUNC, Roskilde, Denmark) at seeding densities of ~23,000 and ~22,000 cells/well, respectively, and then cultured for 22–24 h under standard culturing conditions (37°C, 5% CO2, humidified air) to reach 80–90% confluence. NIH 3T3 were cultured in Dulbecco's modified Eagle's medium (DMEM) supplemented with 10% (v/v) newborn-calf serum (NCS) (Gibco, Paisly, UK), while HepG2 were cultured in Eagle's minimum essential medium (EMEM) supplemented with 10% (v/v) fetal bovine serum (FBS, Gibco, Paisly, UK), sodium pyruvate (1 mM), and non-essential amino acids (1%, v/v). Both culturing media were further supplemented with penicillin (100 U/mL), streptomycin (100 μg/mL), and L-glutamine (2 mM).
Effect on cell viability was determined in NIH 3T3 fibroblasts and HepG2 hepatocytes by using the MTS/PMS assay measuring metabolic activity. Briefly, the adhered cells were washed with 37°C Hanks' balanced salt solution (HBSS from Sigma-Aldrich, St. Louis, MO, USA), containing 10 mM HEPES (AppliChem, Darmstadt, Germany), and adjusted to pH 7.4, and were then exposed for 1 h to 100 μL of test compound(s) dissolved in the appropriate culturing medium without serum for each cell line. After exposure the cells were washed with HBSS containing 10 mM HEPES (pH 7.4) and 100 μL of an MTS/PMS solution, consisting of 240 μg/mL MTS (Promega, Madison, WI, USA) and 2.4 μg/mL PMS (SigmaAldrich, Buchs, Switzerland) in HBSS, was added to the cells, which then were incubated for 1 h at 37°C with horizontal shaking under light protection. Absorbance was measured at 492 nm by using a POLARstar OPTIMA plate reader (BMG Labtech, Offenburg, Germany). The relative viability was calculated according to Equation (1) with absorbance values obtained after incubation of cells with test compound; incubation with SDS (0.2%, w/v in medium) defined 100% cell death (Abspos), while the absorbance of cells incubated with medium defined 0% cell death (Absneg).
(1) Relative viability(%)=(Abssample-Abspos)/(Absneg-Abspos)×100%
EC50 values were calculated by using GraphPad Prism 7 (GraphPad Software, La Jolla, CA, USA) via fitting of the relative cell viability to the concentration of the test compound by using Equation (2):
(2) Relative viability(%)= Top-Bottom/1+10^(LogIC50-Log[peptidomimetic]) ×Hill slope
With top and bottom representing the mean highest and lowest observed values, respectively. The Hill slope represents a factor for the steepness of the linear part of the curve. […] The selectivity index was calculated as the average effect on cell viability (EC50 values for HepG2 and NIH 3T3 cells) divided by the MIC.

[7] = MTS/PMS cell viability assay; format: cell-based, mouse; conditions: mouse, NIH 3T3 fibroblasts, 1 h exposure, read-out: Cytotoxicity NIH 3T3 EC50 ± SD
In short: as §2

NIH 3T3 cells = test: MTS/PMS cell viability assay; format: cell-based, mouse; conditions: 1 h exposure, read-out: Cytotoxicity NIH 3T3 EC50 ± SD
In short: as §2

E. coli ST131 [8] = test: MIC by broth microdilution; format: cell-based, Escherichia coli
In short: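 Broth microdilution per CLSI; combos at fixed peptidomimetic:antibiotic ratios (2:1 rifampicin, 1:4 azithromycin) chosen from checkerboards. Potentiation panels: standard antibiotic dilution plates plus peptidomimetic added immediately pre-inoculation; MIC read as usual.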

K. pneumoniae ST258 [9] = test: MIC by broth microdilution; format: cell-based, Klebsiella pneumoniae
In short: as §3

[10] = MIC of azithromycin combined with the labelled peptidomimetic
[11] = MIC of rifampicin combined with the labelled peptidomimetic
[12] = peptidomimetic 0.5 μM + azithromycin 1 μg/mL
[13] = peptidomimetic 0.5 μM + rifampicin 0.5 μg/mL
[14] = average of EC50 (HepG2, NIH 3T3) divided by MIC

- Antibiotic MIC in combination (AZM) (E. coli ST131 [1]; [10]): 0.5 µg/mL
- Antibiotic MIC in combination (RIF) (E. coli ST131 [1]; [11]): 0.13 µg/mL
- Peptidomimetic MIC alone (E. coli ST131 [1]; checkerboard): 2 µM
- Peptidomimetic MIC in combination (E. coli ST131 [1]; combined with AZM): 0.5 µM
- Peptidomimetic MIC in combination (E. coli ST131 [1]; combined with RIF): 0.5 µM
- Antibiotic MIC in combination (AZM) (K. pneumoniae ST258 [2]; [10]): 4 µg/mL
- Antibiotic MIC in combination (RIF) (K. pneumoniae ST258 [2]; [11]): 0.5 µg/mL
- Peptidomimetic MIC alone (K. pneumoniae ST258 [2]; checkerboard): 16 µM
- Peptidomimetic MIC in combination (K. pneumoniae ST258 [2]; combined with AZM): 2 µM
- Peptidomimetic MIC in combination (K. pneumoniae ST258 [2]; combined with RIF): 1 µM
- Antibiotic MIC in combination (AZM) (P. aeruginosa ATCC 27853 [3]; P. aeruginosa ATCC 27853, MIC of azithromycin combined with the labelled peptidomimetic): 0.5 µg/mL
- Antibiotic MIC in combination (RIF) (P. aeruginosa ATCC 27853 [3]; P. aeruginosa ATCC 27853, MIC of rifampicin combined with the labelled peptidomimetic): 0.06 µg/mL
- Peptidomimetic MIC alone (P. aeruginosa ATCC 27853 [3]; P. aeruginosa ATCC 27853, checkerboard): 16 µM
- Peptidomimetic MIC in combination (P. aeruginosa ATCC 27853 [3]; P. aeruginosa ATCC 27853, combined with AZM): 2 µM
- Peptidomimetic MIC in combination (P. aeruginosa ATCC 27853 [3]; P. aeruginosa ATCC 27853, combined with RIF): 4 µM
- Reduction of the MIC of azithromycin (P. aeruginosa ATCC 27853 [3]; P. aeruginosa, sub-MIC concentrations of peptidomimetic): 32- to 512 fold
- MIC P. aeruginosa ATCC 27853 (P. aeruginosa ATCC 27853 [6]; peptidomimetic alone): 16 µM
- MIC E. coli ST131 (E. coli ST131 [8]; peptidomimetic alone): 2 µM
- MIC K. pneumoniae ST258 (K. pneumoniae ST258 [9]; peptidomimetic alone): 16 µM
Compound: COCCOCCOCC(=O)N[C@@H](CCCCN)C(=O)N(CCC(=O)N[C@@H](CCCCNC(=N)N)C(=O)N(CCC(=O)N[C@@H](CCCCN)C(=O)N(CCC(=O)N[C@@H](CCCCNC(=N)N)C(=O)N(CCC(=O)N[C@@H](CCCCN)C(=O)N(CCC(=O)N[C@@H](CCCCNC(=N)N)C(=O)N(CCC(N)=O)[C@@H](C)c1ccccc1)[C@@H](C)c1ccccc1)[C@@H](C)c1ccccc1)[C@@H](C)c1ccccc1)[C@@H](C)c1ccccc1)[C@@H](C)c1ccccc1 [Peptidomimetic 28, TODA-(Lys-βNspe-hArg-βNspe)3-NH2]
- Growth in combination with AZM (K. pneumoniae ST258 [4]; [12]): +
- Growth in combination with RIF (K. pneumoniae ST258 [4]; [13]): +
- Growth in combination with AZM (MDR E. coli ST131; [12]): –
- Growth in combination with RIF (MDR E. coli ST131; [13]): –
- EC50 at 1 h [5]: 118 ± 2.05 µM
- Selectivity Index (SI) P. aeruginosa ATCC 27853 (P. aeruginosa ATCC 27853 [6]; [14]): (10)
- EC50 (NIH 3T3 and HepG2 cells): > 100 µM
- EC50 at 1 h [7]: ~218 µM
- EC50 (NIH 3T3 cells): 218 ± 18.1 µM
- Selectivity Index (SI) E. coli ST131 (E. coli ST131 [8]; [14]): (84)
- Selectivity Index (SI) K. pneumoniae ST258 (K. pneumoniae ST258 [9]; [14]): (10)
